Reference: patent US20250114430A1, “MODIFIED PEPTIDOMIMETICS AND METHODS OF USE” (The University of North Carolina at Chapel Hill, priority 2021, published 2025)
No end group written: not given here.

What was measured:
[1] = target: Orai1 (Homo sapiens, UniProt Q96D31); experiment: TIRF microscopy of Orai1 in the plasma membrane; assay type: cell-based; parameters: Endogenous Orai1/store operated Ca^2+ influx have been extensively studied in HEK293T cells; endogenous in cells; host or cells: HEK293T; settings: Orai1-YFP, 3 h
Sequence of Orai1 (Q96D31 whole entry): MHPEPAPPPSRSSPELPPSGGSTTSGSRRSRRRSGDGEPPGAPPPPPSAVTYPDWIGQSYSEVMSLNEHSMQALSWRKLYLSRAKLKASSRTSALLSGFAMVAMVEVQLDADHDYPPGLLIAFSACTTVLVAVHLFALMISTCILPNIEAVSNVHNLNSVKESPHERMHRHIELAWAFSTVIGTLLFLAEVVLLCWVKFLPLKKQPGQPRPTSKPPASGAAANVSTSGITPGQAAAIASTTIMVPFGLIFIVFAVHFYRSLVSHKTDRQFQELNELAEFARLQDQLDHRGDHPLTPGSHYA
Text: To determine whether ELD607 internalized Orai1, total internal reflection fluorescence (TIRF) microscopy was used to measure Orai1 in the plasma membrane. […] However, ELD607 reduced Orai1 plasma membrane expression by ˜50% (FIG. 26, panels A-B). […] We expressed NFAT-GFP in HEK293T cells and evaluated the ability of ELD607 to attenuate NFAT relocation to the nucleus after stimulation of SOCE by confocal microscopy. ELD607 reduced the percentage of NFAT in the nucleus by greater than 50% (FIG. 26, panels C-D).

[2] = system: HEK293 T cells; experiment: Cytotoxicity in HEK293 T cells (calcein); assay type: cell-based; settings: 100 μM, 24 h
Protocol: FIG. 28 panels C and D show cell viability per arbitrary units (left) and transepithelial resistance (right) of vehicle vs. ELD607 before and after treatment.
ELD607 is non-toxic in vitro and in vivo. To investigate potential cytotoxic effects of ELD607, […] were exposed to 100 μM ELD607 for 24 h. Cytotoxicity was assessed by exposing cells to calcein to label live cells and fluorescence read by multi-plate reader. […] Primary human bronchial epithelial cultures were exposed to 1 mM ELD607 or vehicle control (saline) for 24 h. Cytotoxicity was assessed by confocal microscopy using calcein and propidium iodide to label live and dead cells respectively. […] Transepithelial resistance was also measured before and after treatment as a measure of epithelial integrity.

[3] = system: HEK293T cells; experiment: Cytoplasmic Ca^2+ (Fluo-4) in HEK293T cells incubated with ELD peptides; assay type: cell-based; settings: 2 hours with Fluo-4 plus or minus peptide
[4] = system: bleomycin-induced lung injury; experiment: Bleomycin-induced lung fibrosis in mice; assay type: in vivo; parameters: dose or concentration left out as unconfirmed
Protocol: Mice were exposed to 4 doses of bleomycin as described from days 1-37, then fibrosis was allowed to form from days 38-60. The mice were then dosed daily with inhaled […] (1 mg/kg) from days 61-82. Mice were sacrificed on Day 83 and histology was performed.
ELD607 reverses fibrosis in mice. Bleomycin-exposed mice are a well-established model to study IPF. Based on ATS guidelines, mice were dosed with […] bleomycin per dose 4 times over 37 days to induce fibrosis. From day 61, mice were then treated intranasally with […] ELD607 daily for 20 days (FIG. 40 panel A). Lungs were then collected and prepped for H&E staining and fibrosis was measured using the Ashcroft scaling system.

[5] = system: P. aeruginosa POA1; experiment: P. aeruginosa infection in Orai1 heterozygous mice and WT littermates; assay type: in vivo; settings: 10^7 CFU/mouse, 0.5 mg/kg intranasal
Text: ELD607, but not global Orai1 inhibition or steroids beneficially reduce pulmonary inflammation after P. aeruginosa infection.

[6] = in vitro; assay type: in vitro ADME; settings: human, serum
Protocol: We injected mice intraperitoneally with E. coli LPS, followed by 0.5 mg/kg ELD607 injected intravenously 1 h later.

[7] = system: immune cells from tracheal aspirates of ARDS/bacterial pneumonia patients; experiment: Thapsigargin-induced cytosolic Ca^2+ in immune cells from ARDS/bacterial pneumonia patients; assay type: cell-based, human; settings: Fluo-4, 1 h exposure
Protocol: We next obtained tracheal aspirates from intubated ARDS/bacterial pneumonia patients. We immediately isolated immune cells from these samples and simultaneously loaded them with the Ca^2+ dye Fluo-4 and exposed them to vehicle, ELD607 or scrambled peptide for 1 h.

[8] = system: P. aeruginosa; experiment: P. aeruginosa infection in WT mice, ELD607 versus comparators; assay type: in vivo; settings: WT mice infected with P. aeruginosa
Text: We then infected WT mice with P. aeruginosa and treated with ELD607, the Orai1 small molecule antagonist […], dexamethasone or scrambled ELD607.

## VHDIVNMLIRG [ELD607, VHDIVNMLIRG]
[1]
  reduction of Orai1 plasma membrane expression: ~50%
[2]
  cell viability (calcein): not significantly different to vehicle control
[3]
  cytoplasmic calcium levels as compared to a control scrambled peptide: reduced cytoplasmic calcium levels
[4]; 25 intranasally daily for 20 days from day 61
  lung damage (Ashcroft): significantly less lung damage than vehicle controls
[4]; lower dose of 19, different time course
  acute and chronic bleomycin-induced lung injury: reduces acute and chronic bleomycin-induced lung injury
[5]
  leukocyte levels in WT littermate controls: normalized leukocytes similar to naïve mice
[6]
  remaining at 4 h: 100%
[7]
  thapsigargin elevation of cytosolic Ca^2+: not after exposure to ELD607
[8]
  bacterial infections: significantly reduced
  lung macrophage levels: increased lung macrophage levels
  neutrophilia: significantly reduced
  weight loss: significantly reduced
